Measurements from patent publication US7897602B2, “Indolinone compounds as kinase inhibitors” (Development Center for Biotechnology, priority 2009, dated 2011).

Key:
Aurora A kinase = target: T1, Aurora A kinase (Homo sapiens, UniProt O14965); test: Aurora A kinase assay ([γ-33P]ATP, CHOCKtide substrate); type: biochemical; details: 1.0 μM test compound
T1 construct: purchased Upstate
T1 sequence (O14965 1-403): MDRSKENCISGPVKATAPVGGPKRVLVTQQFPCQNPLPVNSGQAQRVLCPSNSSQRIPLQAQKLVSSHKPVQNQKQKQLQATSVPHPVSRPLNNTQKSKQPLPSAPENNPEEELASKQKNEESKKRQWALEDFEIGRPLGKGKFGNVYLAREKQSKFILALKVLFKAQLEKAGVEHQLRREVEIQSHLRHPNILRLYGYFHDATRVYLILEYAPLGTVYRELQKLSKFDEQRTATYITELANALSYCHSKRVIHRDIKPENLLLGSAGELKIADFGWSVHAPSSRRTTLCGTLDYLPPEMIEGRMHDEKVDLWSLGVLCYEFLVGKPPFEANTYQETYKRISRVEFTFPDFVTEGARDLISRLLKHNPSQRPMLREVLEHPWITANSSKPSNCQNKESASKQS
Procedure, shortened: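 Radiometric filter-binding format: 33P incorporation into CHOCKtide counted after acid stop and filtration. Reactions ran 30 min at 33 °C, Aurora A with 10 μM ATP, Aurora B with 40 μM ATP. IC50 taken as concentration giving half-maximal kinase inhibition.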

Flt3 kinase = target: T2, Flt3 kinase (Homo sapiens, UniProt P36888); test: Flt3 kinase assay (33P incorporation into Poly(Glu-Tyr)); type: biochemical; details: 100 nM test compound; read-out: Inhibition at 100 nM (%) Flt-3
T2 construct: recombinant N-terminal 6×His-tagged Flt3 kinase domain construct expressed from baculovirus; 6xHis (N); made in house
T2 sequence (P36888 610-943 limits assumed): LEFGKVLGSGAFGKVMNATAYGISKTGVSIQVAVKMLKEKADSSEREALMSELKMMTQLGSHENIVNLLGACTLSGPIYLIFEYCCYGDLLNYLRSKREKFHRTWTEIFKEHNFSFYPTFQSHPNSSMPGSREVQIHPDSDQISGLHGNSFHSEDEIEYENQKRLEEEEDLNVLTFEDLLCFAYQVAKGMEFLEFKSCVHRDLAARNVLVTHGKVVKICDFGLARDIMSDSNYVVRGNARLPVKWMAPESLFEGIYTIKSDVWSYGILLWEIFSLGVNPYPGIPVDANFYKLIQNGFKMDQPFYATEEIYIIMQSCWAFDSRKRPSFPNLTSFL
Procedure, shortened: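 Baculovirus-expressed His-tagged Flt3 kinase domain (5 ng) with Poly(Glu-Tyr) 4:1 substrate, 100 μM ATP plus [33P]-γ-ATP, in MOPS pH 7.0 buffer, 30 min at 30 °C. Compound tested at a single 100 nM concentration; filter-bound radioactivity counted and percent inhibition calculated relative to DMSO control.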

SMILES: CCOC(=O)CCc1c(/C=C2\C(=O)Nc3ccc(NC(=O)c4ccc(OC)cc4)cc32)[nH]c2c1C(=O)CCC2 [DCB-70141, (Z)-ethyl 3-(2-((5-(4-methoxybenzamido)-2-oxoindolin-3-ylidene)methyl)-4-oxo-4,5,6,7-tetrahydro-1H-indol-3-yl)propanoate]
- inhibition at 1 µM (Aurora A kinase): 9.8%
- inhibition at 0.1 µM (Flt3 kinase): 10.7%

SMILES: COc1ccc(C(=O)Nc2ccc3c(c2)/C(=C/c2[nH]c4c(c2CCC(=O)O)C(=O)CCC4)C(=O)N3)cc1 [DCB-70143, (Z)-3-(2-((5-(4-methoxybenzamido)-2-oxoindolin-3-ylidene)methyl)-4-oxo-4,5,6,7-tetrahydro-1H-indol-3-yl)propanoic acid]
- inhibition at 1 µM (Aurora A kinase): 31.8%
- inhibition at 0.1 µM (Flt3 kinase): 6%

SMILES: CN(c1cccc(Cl)c1)S(=O)(=O)c1ccc2c(c1)/C(=C/c1[nH]c3c(c1CCC(=O)O)C(=O)CCCC3)C(=O)N2 [DCB-70148, (Z)-3-(2-((5-(N-(3-chlorophenyl)-N-methylsulfamoyl)-2-oxoindolin-3-ylidene)methyl)-4-oxo-1,4,5,6,7,8-hexahydrocyclohepta[b]pyrrol-3-yl)propanoic acid]
- inhibition at 1 µM (Aurora A kinase): 80.7%
- inhibition at 0.1 µM (Flt3 kinase): 9.7%

SMILES: O=C(O)CCc1c(/C=C2\C(=O)Nc3ccc(S(=O)(=O)Nc4ccc(F)c(Cl)c4)cc32)[nH]c2c1C(=O)CCCC2 [DCB-70149, (Z)-3-(2-((5-(N-(3-chloro-4-fluorophenyl)sulfamoyl)-2-oxoindolin-3-ylidene)methyl)-4-oxo-1,4,5,6,7,8-hexahydrocyclohepta[b]pyrrol-3-yl)propanoic acid]
- inhibition at 1 µM (Aurora A kinase): 77.5%
- inhibition at 0.1 µM (Flt3 kinase): 7.3%
